We go through 18 molecules from ChEMBL document CHEMBL5143622, “Synthesis and biological evaluation of 7H-pyrrolo [2,3-d] pyrimidine derivatives as potential p21-activated kinase 4 (PAK4) inhibitors” (Bioorg Med Chem, 2022).

The target of data set [1] is T1, Serine/threonine-protein kinase PAK 4 (Homo sapiens, UniProt O96013). In words: Inhibition of human PAK4 assessed as inhibition constant.
Target sequence in this assay (O96013 whole entry): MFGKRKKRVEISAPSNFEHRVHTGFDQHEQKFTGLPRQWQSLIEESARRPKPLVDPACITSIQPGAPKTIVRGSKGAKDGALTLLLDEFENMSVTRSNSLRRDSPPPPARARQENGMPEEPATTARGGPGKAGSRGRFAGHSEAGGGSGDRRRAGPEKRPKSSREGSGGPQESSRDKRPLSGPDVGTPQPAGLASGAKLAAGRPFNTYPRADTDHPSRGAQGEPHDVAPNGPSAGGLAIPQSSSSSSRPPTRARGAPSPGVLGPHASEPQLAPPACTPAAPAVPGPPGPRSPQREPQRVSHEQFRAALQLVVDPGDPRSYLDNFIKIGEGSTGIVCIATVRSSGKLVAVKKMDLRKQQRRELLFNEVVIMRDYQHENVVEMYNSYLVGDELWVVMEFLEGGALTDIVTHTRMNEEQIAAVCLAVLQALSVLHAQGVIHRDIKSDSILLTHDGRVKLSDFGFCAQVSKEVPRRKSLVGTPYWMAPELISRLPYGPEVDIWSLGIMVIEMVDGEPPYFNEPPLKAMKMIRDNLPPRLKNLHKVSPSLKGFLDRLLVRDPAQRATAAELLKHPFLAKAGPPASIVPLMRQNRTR
Data set [2] has as its target T1, Serine/threonine-protein kinase PAK 4. Kind of data set: Inhibition of human PAK4 assessed as enzymatic activity at 2 uM incubated for 20 mins by filter binding method relative to control.
Target sequence in this assay (O96013 whole entry, looked up): as the sequence (O96013 whole entry) above
Data set [3] shares this target. Kind of data set: Inhibition of human PAK4 assessed as enzymatic activity incubated for 20 mins by filter binding method.
Target sequence in this assay (O96013 whole entry): as above
Data set [4] concerns MV4-11. Kind of data set: Induction of apoptosis in human MV4-11 cells assessed as late apoptotic cells at 10 nM incubated for 48 hrs by annexin V-FITC and propidium iodide staining based flow cytometry analysis (reference value: 1.67 %). It counts as functional. (In flow cytometry, cells or beads pass a laser one at a time.)
Data set [5] deals with MV4-11. Kind of data set: Induction of apoptosis in human MV4-11 cells assessed as viable cells at 50 nM incubated for 48 hrs by annexin V-FITC and propidium iodide staining based flow cytometry analysis (reference value: 95.6 %). The format is functional. Conditions: read-out: Activity.
Data set [6] deals with MV4-11. Kind of data set: Induction of cell cycle arrest in human MV4-11 cells assessed as accumulation at G0/G1 phase at 10 nM incubated for 24 hrs by propidium iodide staining based flow cytometry analysis (reference value: 66.79 %). The format is functional.
The test system of data set [7] is MV4-11. In words: Induction of apoptosis in human MV4-11 cells assessed as necrotic cells at 50 nM incubated for 48 hrs by annexin V-FITC and propidium iodide staining based flow cytometry analysis (reference value: 0.013 %). The format is functional.
In data set [8] the test system is MV4-11. In words: Induction of apoptosis in human MV4-11 cells assessed as early apoptotic cells at 50 nM incubated for 48 hrs by annexin V-FITC and propidium iodide staining based flow cytometry analysis (reference value: 3.71 %). The format is functional.
Data set [9] has as its system MV4-11. In words: Induction of cell cycle arrest in human MV4-11 cells assessed as accumulation at S phase at 5 nM incubated for 24 hrs by propidium iodide staining based flow cytometry analysis (reference value: 25.75 %). The format is functional.
Data set [10] relates to MV4-11. In words: Induction of cell cycle arrest in human MV4-11 cells assessed as accumulation at G0/G1 phase at 50 nM incubated for 24 hrs by propidium iodide staining based flow cytometry analysis (reference value: 66.79 %). The format is functional.
Data set [11] deals with MV4-11. In words: Induction of cell cycle arrest in human MV4-11 cells assessed as accumulation at G2/M phase at 10 nM incubated for 24 hrs by propidium iodide staining based flow cytometry analysis (reference value: 7.46 %). The format is functional.
The subject of data set [12] is MV4-11. Kind of data set: Induction of cell cycle arrest in human MV4-11 cells assessed as accumulation at G2/M phase at 5 nM incubated for 24 hrs by propidium iodide staining based flow cytometry analysis (reference value: 7.46 %). It counts as functional.
The test system of data set [13] is MV4-11. In words: Antiproliferative activity against human MV4-11 cells assessed as cell growth inhibition incubated for 72 hrs by cell titre glo luminescence assay. To be noted: MV4-11, 72 h. The format is functional, cell-based.
Data set [14] relates to MV4-11. Kind of data set: Induction of cell cycle arrest in human MV4-11 cells assessed as accumulation at G0/G1 phase at 5 nM incubated for 24 hrs by propidium iodide staining based flow cytometry analysis (reference value: 66.79 %). The format is functional.
The subject of data set [15] is MV4-11. Kind of data set: Induction of cell cycle arrest in human MV4-11 cells assessed as accumulation at G2/M phase at 50 nM incubated for 24 hrs by propidium iodide staining based flow cytometry analysis (reference value: 7.46 %). It counts as functional.
The subject of data set [16] is MV4-11. In words: Induction of apoptosis in human MV4-11 cells assessed as late apoptotic cells at 250 nM incubated for 48 hrs by annexin V-FITC and propidium iodide staining based flow cytometry analysis (reference value: 1.67 %). The format is functional.
In data set [17] the test system is MV4-11. Kind of data set: Induction of apoptosis in human MV4-11 cells assessed as early apoptotic cells at 250 nM incubated for 48 hrs by annexin V-FITC and propidium iodide staining based flow cytometry analysis (reference value: 3.71 %). The format is functional.
The subject of data set [18] is MV4-11. Kind of data set: Induction of apoptosis in human MV4-11 cells assessed as early apoptotic cells at 10 nM incubated for 48 hrs by annexin V-FITC and propidium iodide staining based flow cytometry analysis (reference value: 3.71 %). The format is functional.
Data set [19] has as its system MV4-11. In words: Induction of apoptosis in human MV4-11 cells assessed as late apoptotic cells at 50 nM incubated for 48 hrs by annexin V-FITC and propidium iodide staining based flow cytometry analysis (reference value: 1.67 %). It counts as functional.
Data set [20] has as its system MV4-11. Kind of data set: Induction of apoptosis in human MV4-11 cells assessed as viable cells at 10 nM incubated for 48 hrs by annexin V-FITC and propidium iodide staining based flow cytometry analysis (reference value: 95.6 %). The format is functional. Conditions: read-out: Activity.
Data set [21] relates to MV4-11. In words: Induction of cell cycle arrest in human MV4-11 cells assessed as accumulation at S phase at 50 nM incubated for 24 hrs by propidium iodide staining based flow cytometry analysis (reference value: 25.75 %). It counts as functional.
For the next data set, the system named is MDA-MB-231. In words: Antiproliferative activity against human MDA-MB-231 cells assessed as cell growth inhibition incubated for 72 hrs by cell titre glo luminescence assay. It counts as functional, cell-based. To be noted: MDA-MB-231, 72 h.
Data set [22] concerns MV4-11. In words: Induction of apoptosis in human MV4-11 cells assessed as viable cells at 250 nM incubated for 48 hrs by annexin V-FITC and propidium iodide staining based flow cytometry analysis (reference value: 95.6 %). The format is functional. Conditions: read-out: Activity.
Data set [23] concerns MV4-11. In words: Induction of apoptosis in human MV4-11 cells assessed as necrotic cells at 10 nM incubated for 48 hrs by annexin V-FITC and propidium iodide staining based flow cytometry analysis (reference value: 0.013 %). It counts as functional.
For data set [24], the target named is T1, Serine/threonine-protein kinase PAK 4. In words: Inhibition of PAK4 phosphorylation at Ser474 residue in human MV4-11 cells at 50 to 800 nM incubated for 24 hrs by Western blot analysis. It counts as cell-based. To be noted: dose 50-800 nM, DDE = dose-dependent effect.
Target sequence in this assay (O96013 whole entry, looked up): as the sequence (O96013 whole entry) above
Data set [25] has as its system MV4-11. In words: Induction of cell cycle arrest in human MV4-11 cells assessed as accumulation at S phase at 10 nM incubated for 24 hrs by propidium iodide staining based flow cytometry analysis (reference value: 25.75 %). The format is functional.
The test system of data set [26] is MV4-11. Kind of data set: Induction of apoptosis in human MV4-11 cells assessed as necrotic cells at 250 nM incubated for 48 hrs by annexin V-FITC and propidium iodide staining based flow cytometry analysis (reference value: 0.013 %). It counts as functional.
Data set [27] can be described thus: Cytotoxicity against HEK293T cells assessed as cell growth inhibition incubated for 72 hrs by cell titre glo luminescence assay. It counts as toxicity, cell-based, HEK-293T. To be noted: human.

For orientation: Ki means the dissociation constant of the complex between target and ligand, obtained from inhibition or displacement. Turning to `COCCNc1nc2ccc(C#CC3(O)CCCCC3)cc2n1-c1ncnc(N)n1`, the Ki in [1] amounted to 3.3 nM.

Broadly, the inhibition is how much of the control response was suppressed. As for `COc1cccc(Nc2nc(NC3CCNCC3)c3cc[nH]c3n2)c1`, the inhibition in [2] was determined as 46.2%.

On to `OCC(O)CNc1nc(Nc2ccccc2)nc2[nH]ccc12` (stereo not given), for which the inhibition in [2] came out at 82.4%.

The term IC50 denotes the concentration that inhibits the measured activity by half. For the molecule `C[C@@H]1CN(C(=O)c2nc(Nc3cc(C4CC4)[nH]n3)c3cc(Cl)ccc3n2)CCN1`, the half-inhibitory concentration (IC50) in data set [3] is 9 nM.

On to `N[C@H]1CC[C@@H](Nc2nc(Nc3cccc(Cl)c3)nc3[nH]ccc23)CC1`, for which the Activity in the data set with MV4-11 [4] is 2.99%; in the data set on MV4-11 [6], 88.81%; with MV4-11 [7], 0.043%; with MV4-11 [8], 11.9%; in the data set on MV4-11 [9], 17.34%; with MV4-11 [10], 90.98%. Also, the Activity turned out to be 2.48% with MV4-11 [11]; 3.97% in the data set with MV4-11 [12]; 78.7% in the data set with MV4-11 [14]; 1.27% in the data set with MV4-11 [15]; 12.5% with MV4-11 [16]; 14.5% in the data set on MV4-11 [17]. For the same molecule, the Activity is recorded as 4.28% in the data set on MV4-11 [18]; 9.71% in the data set on MV4-11 [19]; 7.75% in the data set on MV4-11 [21]; 0.032% in the data set with MV4-11 [23]; 8.71% in the data set with MV4-11 [25]; 0.087% with MV4-11 [26]. The viability at 0.05 µM in the data set on MV4-11 [5] amounted to 78.4%. Also, the 50% inhibitory concentration (IC50) is 7.8 nM with MV4-11 [13], 2.7 nM in data set [3] and 825 nM in the data set on MDA-MB-231. Besides, in the data set with MV4-11 [20], the viability at 0.01 µM was 92.7%. Moreover, the viability at 0.25 µM in the data set with MV4-11 [22] is 72.8%. For the same molecule, the inhibition entry in data set [24] was “Dde”. Further, in data set [27], the concentration for half-maximal inhibition (IC50) at 72 h was above 10000 nM.

As for `N[C@H]1CC[C@H](Nc2nc(Nc3cccc(Cl)c3)nc3[nH]ccc23)CC1`, the IC50 amounted to 38.3 nM in the data set on MV4-11 [13], 20.2 nM in data set [3] and 2480 nM with MDA-MB-231. Besides, the 50% inhibitory concentration (IC50) at 72 h in data set [27] amounted to 7390 nM.

Consider `Clc1cccc(Nc2nc(NC3CCNCC3)c3cc[nH]c3n2)c1`, for which the half-maximal inhibitory concentration (IC50) in [3] came out at 50.3 nM.

As for `c1ccc(Nc2nc(NC3CCNCC3)c3cc[nH]c3n2)cc1`, the inhibition in data set [2] turned out to be 64.2%. Further, in data set [3], the IC50 amounted to 2940 nM.

For `OCCNc1nc(Nc2ccccc2)nc2[nH]ccc12`, the inhibition in [2] was determined as 86.9%.

For `c1ccc(Nc2nc(N3CCNCC3)c3cc[nH]c3n2)cc1`, the inhibition in data set [2] was determined as 89.6%.

For the molecule `Fc1cccc(Nc2nc(NC3CCNCC3)c3cc[nH]c3n2)c1`, the inhibition in [2] stood at 38.3%. The concentration for half-maximal inhibition (IC50) in data set [3] was 165 nM.

Turning to `N[C@@H]1CCCN(c2nc(Nc3cccc(Cl)c3)nc3[nH]ccc23)C1`, the inhibition in data set [2] came to 72.5%. The IC50 in data set [3] turned out to be 229 nM.

Regarding `CC1(N)CCN(c2nc(Nc3cccc(Cl)c3)nc3[nH]ccc23)CC1`, in [2], the inhibition came out at 35.5%.

Take `c1ccc(Nc2nc(N3CCOCC3)c3cc[nH]c3n2)cc1`: the inhibition in data set [2] amounted to 91.6%.

Consider `Clc1cccc(Nc2nc(NCC3CCNCC3)c3cc[nH]c3n2)c1`, for which the inhibition in data set [2] amounted to 25.9%.

In the case of `NCC1CCCN(c2nc(Nc3cccc(Cl)c3)nc3[nH]ccc23)C1` (stereo not given), in data set [2], the inhibition is 61%.

Consider `Nc1ccc(/C=C/C(=O)NCc2cc3cc(-c4ccc(C(=O)N5CCC(F)(F)CC5)cc4)cc(-c4ccc(F)cc4)c3o2)cn1` [PADNARSERTIB], for which the IC50 in data set [3] amounted to 100 nM.

For `N[C@H]1CCCN(c2nc(Nc3cccc(Cl)c3)nc3[nH]ccc23)C1`, in [2], the inhibition was 38.3%. Also, the IC50 in [3] was determined as 229 nM.
